≈ marks a conversion by molar mass, not a printed value.
What was measured:
CHL cells = experiment: Evaluation of cell toxicity (CCK8 cell viability); type: cell-based
Method: CHL cells are seeded in a 96-well culture plate at a density of 4000 cells per well and incubated overnight at 37° C. in a 5% CO2 incubator. The culture medium is then replaced with 100 μL of medium containing different concentrations of ALC-0315, SM-102, and compounds prepared according to embodiments 1 and 2 of the present invention (specific concentrations are shown in FIG. 1), and cells are further incubated for 48 hours. Subsequently, 10 μL of CCK8 solution is added to each well and incubated for an additional 4 hours in the cell culture incubator. After the incubation, the absorbance at 450 nm is measured using a microplate reader, and cell viability is calculated. The IC50 values are calculated using GraphPad Prism software (version 8.01).

[1] = tested on: RBD of the wild-type Delta strain S protein; experiment: Immunostimulatory efficacy of LNPs@Delta S-2P mRNA (serum antibody titers by ELISA); type: in vivo, Balb/c mice; details: for GMT: i.m.
Fluc mRNA expression [2] = experiment: In vivo expression of LNPs@Fluc mRNA via intravenous injection (organ bioluminescence, IVIS); parameters: species or system NIH mouse; details: intravenous (tail vein), 10 μg FLuc mRNA per mouse, 6 hours after administration; vs MC3, ALC-0315, SM-102
Method: Furthermore, the ability of LNPs@mRNA prepared using compounds of the present invention to deliver mRNA in vivo was investigated. The inventors chose firefly luciferase as the reporter gene to label mRNA, referred to as Fluc mRNA. Following the method outlined in Example 3, LNPs@Fluc mRNA were prepared using different ionizable lipids (Compound 8, MC3, ALC-0315, or SM-102), referred to as LNP@Fluc mRNA formulation, MC3@Fluc mRNA, ALC-0315@Fluc mRNA, and SM-102@Fluc mRNA, respectively. These formulations were administered via intravenous injection (Step 2.1 of this example) and intramuscular injection (Step 2.2 of this example) to investigate the ability of LNPs@mRNA formulations prepared using compounds of the present invention to express mRNA in vivo and the distribution of expression. […]
(§1) Each formulation's mRNA concentration was adjusted to 0.05 mg/mL using PBS solution, and the osmolarity of each formulation was adjusted to isotonic. […] The heart, liver, spleen, lungs, and kidneys were rapidly dissected, and the bioluminescence intensity of each excised organ was measured using an IVIS instrument with an exposure time of 60 s. Total flux of each organ was calculated after imaging. […]

Fluc mRNA expression [3] = experiment: In vivo expression of LNPs@Fluc mRNA via intramuscular injection (bioluminescence, IVIS); parameters: species or system BALB/c mouse; details: 20 μg FLuc mRNA per mouse, 8 hours after administration, vs MC3, ALC-0315, SM-102
Method: Furthermore, the ability of LNPs@mRNA prepared using compounds of the present invention to deliver mRNA in vivo was investigated. The inventors chose firefly luciferase as the reporter gene to label mRNA, referred to as Fluc mRNA. Following the method outlined in Example 3, LNPs@Fluc mRNA were prepared using different ionizable lipids (Compound 8, MC3, ALC-0315, or SM-102), referred to as LNP@Fluc mRNA formulation, MC3@Fluc mRNA, ALC-0315@Fluc mRNA, and SM-102@Fluc mRNA, respectively. These formulations were administered via intravenous injection (Step 2.1 of this example) and intramuscular injection (Step 2.2 of this example) to investigate the ability of LNPs@mRNA formulations prepared using compounds of the present invention to express mRNA in vivo and the distribution of expression.
The formulations LNPs@Fluc mRNA (Compound 8), the positive control formulation MC3@Fluc mRNA, ALC-0315@Fluc mRNA, and SM-102@Fluc mRNA, abbreviated as follows, were prepared as described above.
as §1, with “0.1” for “0.05”, “The” for “The heart, liver, spleen, lungs, and kidneys were rapidly dissected, and the”, “the entire body of the live mice” for “each excised organ”

[4] = CHL cells, 48 hours incubation, CCK8, cell viability
[5] = Table 3: 1 μg each time, two administrations 14 days apart, serum 28 days after the initial immunization
[6] = Day 14, dose 0.1 μg, LNPs@Delta S-2P mRNA prepared with the lipid
[7] = Day 14, dose 1 μg, LNPs@Delta S-2P mRNA prepared with the lipid
[8] = Day 14, dose 5 μg, LNPs@Delta S-2P mRNA prepared with the lipid
[9] = Day 28, dose 0.1 μg, two administrations 14 days apart
[10] = Day 28, dose 1 μg, two administrations 14 days apart
[11] = Day 28, dose 5 μg, two administrations 14 days apart

Structure (SMILES)	GMT [1, 5]	IC50 (CHL cells; CHL, 48 h)	other results
CCCCCCCCC(CCCCCC)C(=O)OCCCCCCN(CCCCO)CCCCCCOC(=O)C(CCCCCC)CCCCCCCC (stereo not drawn) [ALC-0315, reference compound]	–	–	IC50 (CHL cells; [4]): 29.9 µg/mL (≈ 39 µM)
CCCCCCCCC(CCCCCC)CNC(=O)NCCCCCCN(CCCO)CCCCCCNC(=O)NCC(CCCCCC)CCCCCCCC (stereo not drawn) [Compound 7]	341,832.9	126 µg/mL (≈ 155 µM)	–
CCCCCCCCC(CCCCCC)CNC(=O)NCCCCCCN(CCCCO)CCCCCCNC(=O)NCC(CCCCCC)CCCCCCCC (stereo not drawn) [Compound 8]	325,099.7	166 µg/mL (≈ 202 µM)	mRNA expression capability based on the total bioluminescence emitted (Fluc mRNA expression [2]): stronger mRNA expression capability compared to the three positive control materials; mRNA expression capability based on the total bioluminescence emitted (Fluc mRNA expression [3]): stronger mRNA expression capability compared to the three positive control materials; Compound 8 GMT/SM-102 GMT ([1]; Day 14, dose 0.1 μg): 6.3; GMT [1, 6]: 4525.5; Compound 8 GMT/SM-102 GMT ([1]; Day 14, dose 1 μg): 14.3; GMT [1, 7]: 32254.0; Compound 8 GMT/SM-102 GMT ([1]; Day 14, dose 5 μg): 4.5; GMT [1, 8]: 81274.9; Compound 8 GMT/SM-102 GMT ([1]; Day 28, dose 0.1 μg): 3.6; GMT [1, 9]: 64508.0; Compound 8 GMT/SM-102 GMT ([1]; Day 28, dose 1 μg): 4.0; GMT [1, 10]: 325099.7; Compound 8 GMT/SM-102 GMT ([1]; Day 28, dose 5 μg): 2.5; GMT [1, 11]: 819200.0
CCCCCCCCC(CCCCCC)CNC(=O)NCCCCCCN(CCCCCO)CCCCCCNC(=O)NCC(CCCCCC)CCCCCCCC (stereo not drawn) [Compound 9]	452,334.1	152 µg/mL (≈ 182 µM)	–
CCCCCCCCC(CCCCCC)CNC(=O)NCCCCCCN(CCCCCCCO)CCCCCCNC(=O)NCC(CCCCCC)CCCCCCCC (stereo not drawn) [Compound 10]	299,812.1	153 µg/mL (≈ 177 µM)	–
CCCCCCCCC(CCCCCC)CNC(=O)NCCCCCN(CCCCO)CCCCCNC(=O)NCC(CCCCCC)CCCCCCCC (stereo not drawn) [Compound 11]	473,681.3	137 µg/mL (≈ 173 µM)	–
CCCCCCCCC(CCCCCC)CNC(=O)NCCCCCCCCCN(CCCCO)CCCCCCCCCNC(=O)NCC(CCCCCC)CCCCCCCC (stereo not drawn) [Compound 12]	449,359.1	195 µg/mL (≈ 215 µM)	–
CCCCCCCCC(CCCCCC)CNC(=O)NCCCCCCCCCCCCN(CCCCO)CCCCCCCCCCCCNC(=O)NCC(CCCCCC)CCCCCCCC (stereo not drawn) [Compound 13]	210,944.0	136 µg/mL (≈ 137 µM)	–
CCCCCCCCC(CCCCCC)CNC(=O)NCCCCCCCCCCCCN(CCCCO)CCCCCCNC(=O)NCC(CCCCCC)CCCCCCCC (stereo not drawn) [Compound 15]	400,363.5	147 µg/mL (≈ 162 µM)	–
CCCCCCC(CCCCCC)CNC(=O)NCCCCCCN(CCCCO)CCCCCCNC(=O)NCC(CCCCCC)CCCCCC [Compound 16]	244,238.6	134 µg/mL (≈ 174 µM)	–
CCCCCCCCC(CCCCCCCC)CNC(=O)NCCCCCCN(CCCCO)CCCCCCNC(=O)NCC(CCCCCCCC)CCCCCCCC [Compound 17]	299,707.3	174 µg/mL (≈ 198 µM)	–
CCCCCCCCCCCCNC(=O)NCCCCCCN(CCCCO)CCCCCCNC(=O)NCC(CCCCCC)CCCCCCCC (stereo not drawn) [Compound 21]	208,203.5	119 µg/mL (≈ 156 µM)	–
CCCCCCCCCCCOC(=O)CCCCCN(CCO)CCCCCCCC(=O)OC(CCCCCCCC)CCCCCCCC [SM-102, reference compound]	81,274.9	–	GMT [1, 6]: 712.7; GMT [1, 7]: 2262.7; GMT [1, 8]: 18101.9; GMT [1, 9]: 18101.9; GMT [1, 10]: 81274.9; GMT [1, 11]: 325099.7; IC50 (CHL cells; [4]): 55.9 µg/mL (≈ 78.7 µM)

Reference: patent US20250134813A1, “COMPOUNDS, LIPSOMES, AND DRUG CARRIERS FOR DRUG DELIVERY” (priority 2023, published 2025)
